Measurements taken from EP1509285B1, “SYNERGISTIC COMPOSITION OF TRANS-TETRACOS-15-ENOIC ACID AND APOCYNIN AND USE THEREOF” (COUNCIL OF SCIENTIFIC AND INDUSTRIAL RESEARCH, priority 2002, dated 2003).

Key:
[1] = test system: D-Galactosamine (GAIN) induced hepatic injury; assay: Hepatoprotective activity (in vivo) against D-Galactosamine induced hepatic injury; settings: rats; for Hepatic parameters Glutathione / Hepatic parameters Lipid peroxidation / Serum parameters ALP / Serum parameters Bilirubin / Serum parameters Triglycerides / Serum parameters GOT / Serum parameters GPT: 50 mg kg-1 p.o. at 48 h, 24h, 2 h before and 6 h after GalN 300 mg kg-1 s.c., mean ± S.E.; for Serum parameters GOT / Serum parameters GPT: unit is µmole pyruvate/min/L; for hepatoprotective activity percent, ALP / hepatoprotective activity percent, Bilirubin / hepatoprotective activity percent, GOT / hepatoprotective activity percent, GPT / hepatoprotective activity percent, Glutathione / hepatoprotective activity percent, Lipid peroxidation / hepatoprotective activity percent, Triglycerides: GalN, 50 mg kg-1 p.o., H = [1-(TC-V/VC-V)] × 100
Protocol: (§1) i. Animals: The pharmacological studies are conducted on Wistar albino rats (150-180g) and Swiss albino mice (25-30g) of either sex, colony - bred in the Institute's animal house. After procurement, all the animals are divided into different groups and are left for one week for acclimatization to experimentation room and are maintained on standard conditions (23±2°C, 60-70 % relative humidity and 12 h photo period). The animals are fed with standard rodents pellet diet and water ad libitum. There are six animals in each group except for general behaviour and acute toxicity studies where ten animals are used in each group.
D-Galactosamine: It is one of the toxins that induce hepatic inflammatory conditions in the rat liver that clinically resembles to viral hepatitis. The mechanism of GalN induced liver injury has been extensively examined and this model is now accepted as one of the authentic systems of liver damage (Bauer et. al., 1974, Al-Tuwaijiri et. al., 1981). (Table1)
Hepatic damage is produced by injecting GalN (300 mg.kg^-1) subcutaneously in normal saline. The control animals received the equal volume of vehicle.
(§2) Freshly prepared suspension (1%, w/v) in 0.2% gum acacia in normal saline is used for all the experiments except for toxicity studies where (10 %, w/v) suspension is used. Silymarin suspension (1%, w/v) in 0.2 % gum acacia is used as a reference standard (positive control).
Blood is collected from orbital sinus in all the animals 18 h after last treatment and serum separated for different estimations. All the animals are then killed by decapitation, their livers are quickly excised, cleaned of adhering tissue, weighed and homogenised in phosphate buffer saline for the analysis of hepatic parameters. A portion of the liver is processed for histopathological studies (Table 1)
(§3) • GPT and GOT: Pyruvate formed by transamination reaction is determined spectrophotometrically after reaction with 2,4-dinitrophenylhydrazine (Reitman and Frankel, 1957). • ALP : p-nitrophenol formed in alkaline medium is measured spectrophotometrically using p-nitrophenyl phosphate as substrate (Walter and Schutt, 1974). • Bilirubin : Total bilirubin is measured by diazotization reaction with NaNO2 (Malloy and Evelyn, 1937) • Triglycerides : Triglycerides from serum are extracted with isopropanol and sopanified with KOH. The liberated glycerol is converted to formaldehyde by periodate and determined after reaction with acetyl acetone. Triolein is used as standard (Neri and Firings, 1973). • Glutathione: It is determined after deproteination by reaction with DTNB (Ellman 1959 as modified by David 1987). • Lipid peroxidation: Thiobarbituric acid reacting substances are determined spectrophotometrically at 535 nm. Buege. and Aust. (1978).
(§4) Hepatoprotective activity (H) is calculated by the following equation: H = [1-(TC-V/VC-V)] × 100 [formula]
(§5) Where TC, VC, and V are drug + toxin, vehicle + toxin and vehicle treated groups of animals respectively.

[2] = test system: bile flow and bile solids; assay: Choleretic activity: bile flow and bile solids after bile duct cannulation in normal anaesthetised rats; format: in vivo; settings: 50 mg kg-1 i.d., bile collected 0-5 hours, mean ±SE
Source text: The liver, by producing bile, plays an important role in digestion. The presence of bile in the intestine is necessary to accomplish the digestion and absorption of fats as well as absorption of the fat-soluble vitamins- A, D, E & K. Bile is also an important vehicle of excretion. It removes many drugs, toxins, bile pigments and various inorganic substances either derived from the diet or synthesized by the body as cholesterol or as cholic acid.
Effect on the liver bile flow of test drug and that of vehicle is carried out after cannulating the bile duct in normal anaesthesied rats. Bile collected is from each animal from 0-5 hours (Klaassen, 1969, Donal et al.1953). (Table 5)

[3] = test system: 'Acetaminophen' (APAP) induced hepatotoxicity; assay: Hepatoprotective activity (in vivo) against acetaminophen (paracetamol) induced hepatotoxicity after diethyl-ether inhalation; settings: mice; for Serum parameters GOT / Serum parameters GPT: unit is µmole pyruvate/min/L; for hepatoprotective activity percent, ALP / hepatoprotective activity percent, Bilirubin / hepatoprotective activity percent, GOT / hepatoprotective activity percent, GPT / hepatoprotective activity percent, Glutathione / hepatoprotective activity percent, Lipid peroxidation / hepatoprotective activity percent, Triglycerides: APAP, 50 mg kg-1 p.o., H = [1-(TC-V/VC-V)] × 100
Protocol: as §1
Paracetamol (APAP, acetaminophen): It is a therapeutic agent widely used as analgesic/antipyretic drug. When taken in large doses it causes hepatic necrosis which leads to biochemical changes having clinical features similar to those of acute viral hepatitis. The similar effect is observed in animals. The toxic effect can be potentiated if it is given several hours after the anesthetic ether inhalation (Wells et. al., 1986).
Liver injury is induced by injecting paracetamol (200 mg.kg^-1) interaperitoneally in normal saline (pH 9.4) six hour after inhalation of anesthetic ether (4ml/4min/6animals) in a closed chamber. The control animals received the equal volume of vehicle. (Table 2)
as §2
The doses of TCA and APO individually and in mixture, silymarin (50 mg/kg, p.o. each) and vehicle (normal saline) are fed to different groups of mice at 72 hours, 48 hours and 24 hours, 1 hour before diethyl ether inhalation and 1hour after hepatotoxin (paracetamol, 200 mg.kg^-1, i.p.) given 6 hours after exposure to diethyl- ether. Blood is collected from orbital sinus in all the animals 18 hours after last treatment and serum separated for different estimations. A portion of the liver is processed for histopathological studies. (Table 2)
as §3, §4, §5

[4] = 50 mg kg-1 p.o. at 72 h, 48 h, 24 h, 1h before diethyl-ether and 1 h after APAP 200 mg kg-1 i.p., mean ± S.E.

| Compound | Hepatic parameters Glutathione [1] [µ mole GSH/g liver] | Hepatic parameters Lipid peroxidation [1] [n moles MDA/g liver] | Serum parameters ALP [1] | Serum parameters Bilirubin [1] [mg %] | Serum parameters Triglycerides [1] [mg %] | Serum parameters GOT [1] [Units] | Serum parameters GPT [1] [Units] | hepatoprotective activity percent, ALP [1] | hepatoprotective activity percent, Bilirubin [1] | hepatoprotective activity percent, GOT [1] | hepatoprotective activity percent, GPT [1] | hepatoprotective activity percent, Glutathione [1] | hepatoprotective activity percent, Lipid peroxidation [1] | hepatoprotective activity percent, Triglycerides [1] | Bile parameters % Increase (as compared to normal) Bile flow [2] [ml%] | Bile parameters % Increase (as compared to normal) Bile solids [2] [mg%] | Hepatic parameters Glutathione [3, 4] [µ mole GSH/g liver] | Serum parameters ALP [3, 4] | Serum parameters Bilirubin [3, 4] [mg %] | Serum parameters Triglycerides [3, 4] [mg %] | further results |
| --- | --- | --- | --- | --- | --- | --- | --- | --- | --- | --- | --- | --- | --- | --- | --- | --- | --- | --- | --- | --- | --- |
| COc1cc(C(C)=O)ccc1O [APO, Apocynin] | 4.52±0.49 | 48.71±3.69 | 37.73±1.64 µ mole of p-nitrophenol formed/min/ L | 0.41±0.02 | 31.85±3.74 | 509.33±41.63 | 859.18±50.51 | (68.76) percent | (41.66) percent | (38.42) percent | (46.59) percent | (21.51) percent | (39.93) percent | (42.95) percent | 27.39±2.05 | 24.05±2.76 | 4.60±0.42 | 29.71±1.89 µ mole of p-nitroplenol formed/min/ L | 0.43±0.01 | 30.50±1.36 | Hepatic parameters Lipid peroxidation [3, 4]: 48.32±2.13 n moles MDA/g liver; Serum parameters GOT [3, 4]: 755.04±112.04 Units; Serum parameters GPT [3, 4]: 1334.72±98.34 Units; hepatoprotective activity percent, ALP [3]: (67.91) percent; hepatoprotective activity percent, Bilirubin [3]: (42.59) percent; hepatoprotective activity percent, GOT [3]: (36.07) percent; hepatoprotective activity percent, GPT [3]: (42.27) percent; hepatoprotective activity percent, Glutathione [3]: (42.60) percent; hepatoprotective activity percent, Lipid peroxidation [3]: (38.34) percent; hepatoprotective activity percent, Triglycerides [3]: (36.68) percent |
| CCCCCCCC/C=C/CCCCCCCCCCCCCC(=O)O [TCA, trans-tetracos-15-enoic acid] | 5.39±0.43 | 42.12±3.93 | 44.16±2.87 µ mole of p-nitrophenol formed/min/ L | 0.29±0.03 | 29.78±2.82 | 421.64±30.36 | 758.59±40.86 | (59.67) percent | (66.66) percent | (52.03) percent | (53.74) percent | (38.84) percent | (59.35) percent | (50.99) percent | 08.23±1.71 | 13.40±1.53 | 4.59±0.45 | 34.95±1.89 µ mole of p-nitroplenol formed/min/ L | 0.355±0.01 | 23.53±1.77 | Serum parameters GOT [3, 4]: 561.83±51.52 Units; Serum parameters GPT [3, 4]: 1008.04±63.66 Units; hepatoprotective activity percent, ALP [3]: (52.96) percent; hepatoprotective activity percent, Bilirubin [3]: (56.48) percent; hepatoprotective activity percent, GOT [3]: (54.92) percent; hepatoprotective activity percent, GPT [3]: (57.99) percent; hepatoprotective activity percent, Glutathione [3]: (42.35) percent; hepatoprotective activity percent, Lipid peroxidation [3]: (55.48) percent; hepatoprotective activity percent, Triglycerides [3]: (66.05) percent |
